Assay results taken from ChEMBL document CHEMBL1133556, “Carbonic anhydrase inhibitors: water-soluble 4-sulfamoylphenylthioureas as topical intraocular pressure-lowering agents with long-lasting effects” (J Med Chem, 2000).
Values after ≈ are worked out from the molar mass of the structure shown.

What was measured:
Carbonic anhydrase 2 = Carbonic anhydrase 2 (Homo sapiens, UniProt P00918)
Description: Inhibitory activity against human recombinant carbonic anhydrase II

Carbonic anhydrase 4 = molecular target: T1, Carbonic anhydrase 4 (Bos taurus, UniProt Q95323)
T1 sequence (Q95323 whole entry): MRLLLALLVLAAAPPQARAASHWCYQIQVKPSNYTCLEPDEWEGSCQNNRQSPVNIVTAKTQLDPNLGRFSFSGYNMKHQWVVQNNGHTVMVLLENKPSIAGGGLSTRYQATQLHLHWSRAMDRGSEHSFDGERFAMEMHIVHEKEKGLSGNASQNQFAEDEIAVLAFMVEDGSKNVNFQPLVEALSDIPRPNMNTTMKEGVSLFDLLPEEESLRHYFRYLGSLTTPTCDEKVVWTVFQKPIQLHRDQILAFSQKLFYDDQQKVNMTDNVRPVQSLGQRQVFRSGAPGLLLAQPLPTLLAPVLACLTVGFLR
Description: Inhibitory activity against bovine carbonic anhydrase IV from lung microsomes

Carbonic anhydrase 1 = Carbonic anhydrase 1 (Homo sapiens, UniProt P00915)
Sequence of Carbonic anhydrase 1 (P00915 whole entry): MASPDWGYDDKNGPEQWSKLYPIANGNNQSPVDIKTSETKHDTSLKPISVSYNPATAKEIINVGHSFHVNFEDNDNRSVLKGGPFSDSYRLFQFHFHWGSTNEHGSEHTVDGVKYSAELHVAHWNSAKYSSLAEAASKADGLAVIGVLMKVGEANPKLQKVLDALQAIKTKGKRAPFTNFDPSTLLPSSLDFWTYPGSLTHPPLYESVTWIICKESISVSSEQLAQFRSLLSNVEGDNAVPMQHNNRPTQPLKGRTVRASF
Description: Inhibitory activity against human recombinant carbonic anhydrase I

Oryctolagus cuniculus [1] = experiment: Tested in vivo for lowering IOP (Intraocular Pressure)in Normotensive Rabbits at pH 7.0. after treatment with 50 uL, activity at 90 minutes; type: functional
Oryctolagus cuniculus [2] = experiment: Tested in vivo for lowering IOP (Intraocular Pressure)in Normotensive Rabbits at pH 7.0 after treatment with 50 uL, activity at 60 minutes; type: functional
Oryctolagus cuniculus [3] = species: Oryctolagus cuniculus
Oryctolagus cuniculus [4] = species: Oryctolagus cuniculus; experiment: Tested ex vivo for ocular tissue concentration against cornea after 1 hour of treatment with 50 uL; type: functional, organism-based
Oryctolagus cuniculus [5] = experiment: Tested in vivo for lowering IOP (Intraocular Pressure)in Glaucomatous Rabbits at pH 7.0 after treatment with 50 uL, activity at 90 minutes; type: functional
Oryctolagus cuniculus [6] = species: Oryctolagus cuniculus; experiment: Tested ex vivo for ocular tissue concentration against cornea after 2 hour of treatment with 50 uL; type: functional, organism-based
[7] = octanol/water
Description: Partition coefficient (logD) (chloroform/buffer)

Oryctolagus cuniculus [8] = experiment: Tested in vivo for lowering IOP (Intraocular Pressure)in Glaucomatous Rabbits at pH 7.0 after treatment with 50 uL, activity at 60 minutes; type: functional
physchem = conditions: buffer, pH 7.4
Description: Solubility (in uM) in pH 7.40 at 25 degree C

Oryctolagus cuniculus [9] = species: Oryctolagus cuniculus; experiment: Tested ex vivo for ocular tissue concentration against aqueous humor after 2 hour of treatment with 50 uL; type: functional, organism-based; conditions: Eye
Oryctolagus cuniculus [10] = species: Oryctolagus cuniculus; experiment: Tested ex vivo for ocular tissue concentration against ciliary process after 2 hour of treatment with 50 uL; type: functional, organism-based; conditions: Eye
Oryctolagus cuniculus [11] = species: Oryctolagus cuniculus; remark: listed apart in the source
Description: Tested in vivo for lowering IOP (Intraocular Pressure)in Normotensive Rabbits at pH 7.0 after treatment with 50 uL, activity at 90 minutes

Oryctolagus cuniculus [12] = experiment: Tested in vivo for lowering IOP (Intraocular Pressure)in Glaucomatous Rabbits at pH 7.0 after treatment with 50 uL, activity at 30 minutes; type: functional
Oryctolagus cuniculus [13] = species: Oryctolagus cuniculus; experiment: Tested ex vivo for ocular tissue concentration against ciliary process after 1 hour of treatment with 50 uL; type: functional, organism-based; conditions: Eye
Oryctolagus cuniculus [14] = species: Oryctolagus cuniculus; remark: listed apart in the source
Description: Tested in vitro for transcorneal accession rates (corneal permeability) against cornea with no epithelium

Oryctolagus cuniculus [15] = species: Oryctolagus cuniculus; remark: listed apart in the source
Oryctolagus cuniculus [16] = species: Oryctolagus cuniculus; remark: listed apart in the source
Description: Tested in vitro for transcorneal accession rates (corneal permeability) against intact cornea

Oryctolagus cuniculus [17] = species: Oryctolagus cuniculus; experiment: Tested ex vivo for ocular tissue concentration against aqueous humor after 1 hour of treatment with 50 uL; type: functional, organism-based; conditions: Eye
Oryctolagus cuniculus [18] = experiment: Tested in vivo for lowering IOP (Intraocular Pressure)in Glaucomatous Rabbits at pH 7.5 after treatment with 50 uL, activity at 90 minutes; type: functional
Oryctolagus cuniculus [19] = experiment: Tested in vivo for lowering IOP (Intraocular Pressure)in Glaucomatous Rabbits at pH 7.5 after treatment with 50 uL, activity at 60 minutes; type: functional
Oryctolagus cuniculus [20] = experiment: Tested in vivo for lowering IOP (Intraocular Pressure)in Glaucomatous Rabbits at pH 7.5 after treatment with 50 uL, activity at 30 minutes; type: functional
Oryctolagus cuniculus [21] = experiment: Tested in vivo for lowering IOP (Intraocular Pressure)in Normotensive Rabbits at pH 7.0 after treatment with 50 uL, activity at 30 minutes; type: functional

Row | Ki (Carbonic anhydrase 2) | Ki (Carbonic anhydrase 4) | Ki (Carbonic anhydrase 1) | logD [7] | solubility (physchem) | SMILES | Delta IOP (Oryctolagus cuniculus [2]) | Delta IOP (Oryctolagus cuniculus [3]) | Delta IOP (Oryctolagus cuniculus [11]) | kin (Oryctolagus cuniculus [14]) | Delta IOP (Oryctolagus cuniculus [15]) | kin (Oryctolagus cuniculus [16]) | further results
1 | 12 nM | 55 nM | 97 nM |  |  | NCCCCC(/N=C(\S)Nc1ccc(S(N)(=O)=O)cc1)C(=O)O (centres undefined) | 0 mmHg | 0 mmHg |  |  |  |  | Delta IOP (Oryctolagus cuniculus [1]): 0 mmHg
2 | 6 nM | 11 nM | 27 nM | 1.759 | 51 mM (≈ 17.7 mg/mL) | NC(=O)CC(/N=C(\S)Nc1ccc(S(N)(=O)=O)cc1)C(=O)O (centres undefined) |  | 7 mmHg | 6 mmHg | 7800 h⁻¹ | 10.1 mmHg | 3100 h⁻¹ | Concentration (Oryctolagus cuniculus [4]): 141 µM; Delta IOP (Oryctolagus cuniculus [5]): 15.5 mmHg; Concentration (Oryctolagus cuniculus [6]): 54 µM; Delta IOP (Oryctolagus cuniculus [8]): 13 mmHg; Concentration (Oryctolagus cuniculus [9]): 43 µM; Concentration (Oryctolagus cuniculus [10]): 12 µM; Delta IOP (Oryctolagus cuniculus [12]): 10 mmHg; Concentration (Oryctolagus cuniculus [13]): 47 µM; Concentration (Oryctolagus cuniculus [17]): 285 µM
3 | 3 nM | 15 nM | 28 nM | 1.459 | 73 mM (≈ 23.3 mg/mL) | NS(=O)(=O)c1ccc(N/C(S)=N/C(CO)C(=O)O)cc1 (centres undefined) | 9.5 mmHg | 8 mmHg | 9.1 mmHg | 8000 h⁻¹ |  | 3400 h⁻¹ | Delta IOP (Oryctolagus cuniculus [18]): 17.5 mmHg; Delta IOP (Oryctolagus cuniculus [19]): 15 mmHg; Delta IOP (Oryctolagus cuniculus [20]): 10.4 mmHg
4 | 11 nM | 33 nM | 45 nM |  |  | NS(=O)(=O)c1ccc(N/C(S)=N\CCCC(=O)O)cc1 |  |  | 2.9 mmHg |  | 3.1 mmHg |  | Delta IOP (Oryctolagus cuniculus [21]): 5 mmHg
